Reference: PubChem BioAssay AID256 (DTP/NCI, 2004)
Several values for one entry are separate records, joined by “and”; a condition that tells them apart may be missing. Equal entries are not always repeated. Inconclusive results and toxic doses are left out. How the source made its calls: active means survival T/C of 150% or more; inactive means T/C below 125% in these data.

Test system: CD2F1 mice, L1210 leukemia ip, survival T/C
Assay: NCI In Vivo Anticancer Drug Screen. Data for tumor model L1210 Leukemia (intraperitoneal) in CD2F1 (CDF1) mice
Conditions: endpoint: mean survival time, higher = longer survival
How it was run: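 Antitumor effect is scored in animals hosting a serially transplanted tumor. Values compare compound-dosed animals against vehicle-only controls as a simple quotient.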

[1] = dose: 12.5 mg/kg/injection, schedule: Q01DX009 (ip), vehicle: saline with Tween-80
[2] = dose: 25.0 mg/kg/injection, schedule: Q01DX009 (ip), vehicle: saline with Tween-80
[3] = dose: 100.0 mg/kg/injection, schedule: Q04DX003 (ip), vehicle: saline with Tween-80
[4] = dose: 200.0 mg/kg/injection, schedule: Q04DX003 (ip), vehicle: saline with Tween-80
[5] = dose: 400.0 mg/kg/injection, schedule: Q04DX003 (ip), vehicle: saline with Tween-80
[6] = dose: 100.0 mg/kg/injection, schedule: Q01DX009 (ip), vehicle: saline with Tween-80
[7] = dose: 200.0 mg/kg/injection, schedule: Q01DX009 (ip), vehicle: saline with Tween-80
[8] = dose: 400.0 mg/kg/injection, schedule: Q01DX009 (ip), vehicle: saline with Tween-80
[9] = dose: 100.0 mg/kg/injection, schedule: Q04DX003 (ip), vehicle: other
[10] = dose: 200.0 mg/kg/injection, schedule: Q04DX003 (ip), vehicle: other
[11] = dose: 400.0 mg/kg/injection, schedule: Q04DX003 (ip), vehicle: other
[12] = dose: 50.0 mg/kg/injection, schedule: Q01DX001 (ip), vehicle: carboxymethylcellulose (CMC)
[13] = dose: 100.0 mg/kg/injection, schedule: Q01DX001 (ip), vehicle: carboxymethylcellulose (CMC)
[14] = dose: 200.0 mg/kg/injection, schedule: Q01DX001 (ip), vehicle: carboxymethylcellulose (CMC)
[15] = dose: 400.0 mg/kg/injection, schedule: Q01DX001 (ip), vehicle: carboxymethylcellulose (CMC)
[16] = dose: 50.0 mg/kg/injection, schedule: Q01DX009 (ip), vehicle: saline with Tween-80
[17] = dose: 100.0 mg/kg/injection, schedule: Q04DX002 (ip), vehicle: saline with Tween-80
[18] = dose: 200.0 mg/kg/injection, schedule: Q04DX002 (ip), vehicle: saline with Tween-80
[19] = dose: 5.0 mg/kg/injection, schedule: Q01DX009 (ip), vehicle: saline with Tween-80
[20] = dose: 10.0 mg/kg/injection, schedule: Q01DX009 (ip), vehicle: saline with Tween-80
[21] = dose: 20.0 mg/kg/injection, schedule: Q01DX009 (ip), vehicle: saline with Tween-80

Measured: T/C

CC1(C)N=C(N)N=C(N)N1c1cccc(CCCCc2ccc(S(=O)(=O)F)cc2Cl)c1
inactive: dose: 12.5 mg/kg/injection, schedule: Q01DX009 (ip), vehicle: saline sonified 87 % of control | dose: 12.5 mg/kg/injection, schedule: Q04DX003 (ip), vehicle: saline sonified 96 % of control | dose: 25.0 mg/kg/injection, schedule: Q01DX009 (ip), vehicle: saline sonified 89 % of control | dose: 25.0 mg/kg/injection, schedule: Q04DX003 (ip), vehicle: saline sonified 96 % of control | dose: 50.0 mg/kg/injection, schedule: Q04DX003 (ip), vehicle: saline sonified 92 % of control

N#CSCc1ccc(Cl)cc1
inactive: dose: 6.25 mg/kg/injection, schedule: Q01DX009 (ip), vehicle: saline with Tween-80 98 % of control | [1] 96 % of control | [2] 106 % of control

CCCCOC(=O)/C=C/C(=O)OCCCC
inactive: [3] 102 % of control | [4] 102 % of control | [5] 105 % of control

O=S1CCCO1 (stereo not given)
inactive: dose: 18.8 mg/kg/injection, schedule: Q04DX003 (ip), vehicle: saline 101 % of control

O=[N+]([O-])c1cccc(Cc2nncc3ccccc23)c1
inactive: [6] 96 % of control | [7] 94 % of control | [8] 94 % of control

O=C(O)/C=C\C(=O)Nc1ccccc1
inactive: [6] 93 % of control | [3] 109 % of control | [7] 96 % of control | [4] 101 % of control | [8] 96 % of control | [5] 97 % of control

C1=CCC(CNc2ncnc3nc[nH]c23)=CC1
inactive: [6] 100 % of control | [3] 98 % of control | [7] 100 % of control | [4] 98 % of control | [8] 88 % of control | [5] 104 % of control

O=c1[nH]cc(Cl)cc1Cl
inactive: [9] 91 % of control | [10] 103 % of control | [11] 105 % of control

COc1ccc(/C=C/C(=O)c2ccc(Cl)cc2)c(OC)c1
inactive: [9] 101 % of control | [10] 95 % of control | [11] 93 % of control

CC(C)(N)CO
inactive: dose: 50.0 mg/kg/injection, schedule: Q01DX009 (ip), vehicle: saline 88 % of control | dose: 100.0 mg/kg/injection, schedule: Q01DX009 (ip), vehicle: saline 100 % of control | dose: 200.0 mg/kg/injection, schedule: Q01DX009 (ip), vehicle: saline 100 % of control

CC(C)OC(N)=O
inactive: dose: 100.0 mg/kg/injection, schedule: Q01DX001 (ip), vehicle: saline 94 % of control | [6] 106 % of control | dose: 100.0 mg/kg/injection, schedule: Q04DX003 (ip), vehicle: saline 97 % of control | dose: 200.0 mg/kg/injection, schedule: Q01DX001 (ip), vehicle: saline 102 % of control | [7] 103 % of control | dose: 200.0 mg/kg/injection, schedule: Q04DX003 (ip), vehicle: saline 101 % of control | dose: 400.0 mg/kg/injection, schedule: Q01DX001 (ip), vehicle: saline 100 % of control | [8] 105 % of control | dose: 400.0 mg/kg/injection, schedule: Q04DX003 (ip), vehicle: saline 100 % of control

OCC1OC(n2cnc3c(Nc4ccccc4)ncnc32)C(O)C1O (stereo not given)
inactive: dose: 12.5 mg/kg/injection, schedule: Q01DX005 (ip), vehicle: distilled water + Tween-80 102 % of control | dose: 25.0 mg/kg/injection, schedule: Q01DX005 (ip), vehicle: distilled water + Tween-80 100 % of control | dose: 50.0 mg/kg/injection, schedule: Q01DX005 (ip), vehicle: distilled water + Tween-80 100 % of control | dose: 100.0 mg/kg/injection, schedule: Q01DX005 (ip), vehicle: distilled water + Tween-80 94 % of control | dose: 200.0 mg/kg/injection, schedule: Q01DX005 (ip), vehicle: distilled water + Tween-80 98 % of control

CCCCCCCCCCCCCCCCCCCOc1ccc(OCCCCCCCCCCCCCC)cc1
inactive: dose: 100.0 mg/kg/injection, schedule: Q01DX001 (ip), vehicle: saline with Tween-80 86 % of control | dose: 200.0 mg/kg/injection, schedule: Q01DX001 (ip), vehicle: saline with Tween-80 88 % of control | dose: 400.0 mg/kg/injection, schedule: Q01DX001 (ip), vehicle: saline with Tween-80 88 % of control

CC(C(=O)c1cccs1)=C(C(F)(F)F)C(F)(F)F
inactive: dose: 6.25 mg/kg/injection, schedule: Q01DX009 (ip), vehicle: other 100 % of control | dose: 12.5 mg/kg/injection, schedule: Q01DX009 (ip), vehicle: other 94 % of control | dose: 25.0 mg/kg/injection, schedule: Q01DX009 (ip), vehicle: other 100 % of control | dose: 50.0 mg/kg/injection, schedule: Q01DX009 (ip), vehicle: other 97 % of control

CN(C)C(=S)S
inactive: [12] 93 % of control | [13] 89 % of control | [3] 94 % of control | [14] 104 % of control | [4] 105 % of control | [15] 106 % of control | [5] 100 % of control

Cn1ccc(=Nc2ccc(NC(=O)c3ccc(N=c4ccn(C)c5ccc([N+](=O)[O-])cc45)cc3[N+](=O)[O-])cc2)cc1
inactive: [1] 101 % of control | [2] 113 % of control | [16] 119 % of control | [6] 119 % of control | [8] 95 % of control

O=C1C=C(c2ccccc2)C(O)(c2ccccc2)/C1=C/c1ccccc1 (stereo not given)
inactive: [17] 87 % of control | [18] 88 % of control

CC1CCCNC1 (stereo not given)
inactive: [3] 97 % of control | [5] 93 % of control

CCOC(=O)CNC(=O)Sc1ccc(C(C)(C)C)cc1
inactive: dose: 12.5 mg/kg/injection, schedule: Q01DX009 (ip), vehicle: Klucel (hydroxypropylcellulose) (HPC) 96 % of control and 105 % of control | dose: 25.0 mg/kg/injection, schedule: Q01DX009 (ip), vehicle: Klucel (hydroxypropylcellulose) (HPC) 101 % of control and 105 % of control | dose: 50.0 mg/kg/injection, schedule: Q01DX009 (ip), vehicle: Klucel (hydroxypropylcellulose) (HPC) 101 % of control and 102 % of control | dose: 100.0 mg/kg/injection, schedule: Q01DX009 (ip), vehicle: Klucel (hydroxypropylcellulose) (HPC) 100 % of control and 105 % of control | dose: 200.0 mg/kg/injection, schedule: Q01DX009 (ip), vehicle: Klucel (hydroxypropylcellulose) (HPC) 100 % of control and 103 % of control | dose: 400.0 mg/kg/injection, schedule: Q01DX009 (ip), vehicle: Klucel (hydroxypropylcellulose) (HPC) 97 % of control

Cc1nccc2c1[nH]c1cc(N)ccc12.[Cl][Sn][Cl]
inactive: [19] 115 % of control | [20] 103 % of control | [21] 102 % of control

CC(=O)OCC(=O)C1(O)CCC2C3CCC4=CC(=O)CCC4(C)C34OC4CC21C (stereo not given)
inactive: [6] 98 % of control | [7] 94 % of control | [8] 91 % of control

C[N+]([O-])(CCO)Cc1ccccc1 (stereo not given)
inactive: [12] 102 % of control | [13] 112 % of control | [14] 112 % of control | [15] 112 % of control

Cn1c(=O)sc2ccccc21
inactive: [17] 111 % of control | [18] 114 % of control

O=C(O)C(O)C(O)C(O)C(O)CO (stereo not given)
inactive: [16] 109 % of control | [6] 97 % of control | [7] 106 % of control

O=C(CCO)CC(=O)CCc1ccccc1Cl
inactive: [3] 97 % of control | [4] 103 % of control | [5] 91 % of control

[Cl][Pt+2][Cl].[NH-]c1cc2ccccc2cc1[NH-]
inactive: dose: 2.5 mg/kg/injection, schedule: Q01DX009 (ip), vehicle: saline with Tween-80 102 % of control | [19] 109 % of control | [20] 109 % of control | [21] 100 % of control and 112 % of control | dose: 40.0 mg/kg/injection, schedule: Q01DX009 (ip), vehicle: saline with Tween-80 105 % of control and 111 % of control | dose: 80.0 mg/kg/injection, schedule: Q01DX009 (ip), vehicle: saline with Tween-80 105 % of control | dose: 160.0 mg/kg/injection, schedule: Q01DX009 (ip), vehicle: saline with Tween-80 106 % of control | dose: 320.0 mg/kg/injection, schedule: Q01DX009 (ip), vehicle: saline with Tween-80 111 % of control
